Experimental data: patent US8487121B2, “Chromane derivatives as TRPV3 modulators” (Glenmark Pharmaceuticals S.A., priority 2007, dated 2013)

Biological target: T1, Human TRPV3 (Homo sapiens, UniProt Q8NET8)
T1 construct: expressed in transfected cells; host or cells: CHO cells (G-418 selected)
T1 sequence (Q8NET8 1-790): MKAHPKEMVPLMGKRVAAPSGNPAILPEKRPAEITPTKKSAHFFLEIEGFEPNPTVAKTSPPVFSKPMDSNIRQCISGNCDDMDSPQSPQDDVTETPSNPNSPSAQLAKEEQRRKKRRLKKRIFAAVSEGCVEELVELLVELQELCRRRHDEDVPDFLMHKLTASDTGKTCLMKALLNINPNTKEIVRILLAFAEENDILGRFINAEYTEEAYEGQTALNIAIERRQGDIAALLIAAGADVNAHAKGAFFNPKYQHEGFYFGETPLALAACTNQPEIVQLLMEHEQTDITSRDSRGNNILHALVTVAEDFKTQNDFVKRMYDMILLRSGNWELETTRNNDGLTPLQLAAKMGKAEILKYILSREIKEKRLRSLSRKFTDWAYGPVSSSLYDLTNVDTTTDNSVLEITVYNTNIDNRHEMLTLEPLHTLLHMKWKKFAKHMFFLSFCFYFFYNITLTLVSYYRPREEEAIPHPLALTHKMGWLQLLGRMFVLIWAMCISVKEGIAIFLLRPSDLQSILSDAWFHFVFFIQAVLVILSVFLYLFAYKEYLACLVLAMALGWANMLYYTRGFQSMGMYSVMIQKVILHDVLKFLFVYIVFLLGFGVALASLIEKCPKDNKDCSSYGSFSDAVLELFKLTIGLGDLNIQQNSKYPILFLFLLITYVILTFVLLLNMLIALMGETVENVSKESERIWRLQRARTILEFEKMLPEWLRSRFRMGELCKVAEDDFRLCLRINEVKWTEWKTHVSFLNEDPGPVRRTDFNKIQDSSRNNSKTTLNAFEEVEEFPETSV
Assay: 45Calcium uptake assay: inhibition of 2-APB induced cellular uptake of radioactive calcium
Assay type: cell-based
Settings: human TRPV3 expressing CHO cells, 2-APB 500 μM; for inhibition at 1 µM: 1.0 μM compound, read-out: Percentage inhibition at 1.0 μM; for inhibition at 10 µM: 10.0 μM compound, read-out: Percentage inhibition at 10.0 μM
Description: The illustrative examples of the present invention are screened for TRPV3 activity according to a modified procedure described in Toth, A. et al. Life Sciences (2003), 73, 487-498. The screening of the compounds can be carried out by other methods and procedures known to a person skilled in the art. Such screening methods may be found in Hu, H-Z., et al. J. Biol. Chem. (2004), 279, 35741-35748; Smith, G. D et al. Nature (2002), 418, 186-190 and Peier, A. M., et al. Science (2002), 296, 2046-2049.
Screening for TRPV3 Antagonist Using the ^45Calcium Uptake Assay:
The inhibition of TRPV3 receptor activation was followed as inhibition of 2-APB induced cellular uptake of radioactive calcium. Test compounds were dissolved in DMSO to prepare 20 mM stock and then diluted using plain medium with 0.1% BSA and 1.8 mM CaCl2 to get desired concentration. Final concentration of DMSO in the reaction was 0.5% (v/v). Human TRPV3 expressing CHO cells were grown in F-12 DMEM medium with 10% FBS, 1% penicillin-streptomycin solution, 400 μg/ml of G-418. Cells were seeded 24 h prior to the assay in 96 well plates so as to get ˜50,000 cells per well on the day of experiment. Cells were treated with test compounds for 10 minutes followed by addition of 2-APB at a final concentration of 500 μM and 5 μCi/ml ^45Ca^+2 for 4 minutes. Cells were washed and lysed using buffer containing 1% Triton X-100, 0.1% deoxycholate and 0.1% SDS. Radioactivity in the lysate was measured in Packardt Top count after addition of liquid scintillant.
Concentration response curves were plotted as a % of maximal response obtained in the absence of test antagonist. IC50 value was calculated from concentration response curve by nonlinear regression analysis using GraphPad PRISM software.
Percentage inhibition at concentrations of 1.0 μM and 10.0 μM are given in the table along with IC50 (nM) values for selected examples.

inhibition at 1 µM | inhibition at 10 µM | IC50 | Compound
61.9% | 91.4% | 500 to 1000 nM | Cc1cccc(CCC(=O)N[C@@H]2CC3(CCC3)Oc3ccc(Cl)cc32)c1OC1CCCC1 [Example 53, (4R)-6-Chloro-N-(3,4-dihydrospiro[chromene-2,1′-cyclobutan]-4-yl)-3-(2-cyclopentyloxy-3-methyl)phenylpropanamide]
36.2% | 63.6% |  | Cc1cccc(CCC(=O)N[C@H]2CC3(CCC3)Oc3ccc(Cl)cc32)c1OC1CCCC1 [Example 54, (4S)-6-Chloro-N-(3,4-dihydrospiro[chromene-2,1′-cyclobutan]-4-yl)-3-(2-cyclopentyloxy-3-methyl)phenylpropanamide]
57.5% | 87.5% |  | COc1cccc(CCC(=O)NC2CC3(CCC3)Oc3ccc(Cl)cc32)c1OCc1ccccc1 (stereo not drawn) [Example 56, N-(6-Chloro-3,4-dihydrospiro[chromene-2,1′-cyclobutan]-4-yl)-3-(2-benzyloxy-3-methoxy)phenylpropanamide]
30.3% | 84.3% |  | CC(C)Oc1c(CCC(=O)NC2CC3(CCC3)Oc3ccc(Cl)cc32)cccc1NS(C)(=O)=O (stereo not drawn) [Example 57, N-(6-Chloro-3,4-dihydrospiro[chromene-2,1′-cyclobutan]-4-yl)-3-{2-isopropoxy-3-[(methylsulfonyl)amino]phenyl}propanamide]
61.7% | 98.7% |  | CC(C)Oc1c(CCC(=O)NC2CC3(CCC3)Oc3c(Cl)cccc32)cccc1NS(C)(=O)=O (stereo not drawn) [Example 58, N-(8-Chloro-3,4-dihydrospiro[chromene-2,1′-cyclobutan]-4-yl)-3-{2-isopropoxy-3-[(methylsulfonyl)amino]phenyl}propanamide]
89.4% | 96.3% | < 500 nM | COc1cccc(CCC(=O)NC2CC3(CCC3)Oc3c(Cl)cc(Cl)cc32)c1OC1CCCC1 (stereo not drawn) [Example 59, N-(6,8-Dichloro-3,4-dihydrospiro[chromene-2,1′-cyclobutan]-4-yl)-3-(2-cyclopentyloxy-3-methoxy)phenylpropanamide]
1.2% | 0% |  | COc1cccc(CCC(=O)NC2CC3(CCC3)Oc3c(Cl)cc(Cl)cc32)c1OCCN(C)C (stereo not drawn) [Example 60, N-(6,8-dichloro-3,4-dihydrospiro[chromene-2,1′-cyclobutan]-4-yl)-3-{[2-(dimethylamino)ethoxy-3-methoxy]phenyl}propanamide]
45.1% | 93.8% |  | CCCOc1c(CCC(=O)NC2CC3(CCC3)Oc3c(Cl)cc(Cl)cc32)cccc1NS(C)(=O)=O (stereo not drawn) [Example 61, N-(6,8-dichloro-3,4-dihydrospiro[chromene-2,1′-cyclobutan]-4-yl)-3-{2-propoxy-3-[(methylsulfonyl)amino]phenyl}propanamide]
13.5% | 82.2% |  | CC(C)Oc1ccc(NS(C)(=O)=O)cc1CCC(=O)NC1CC2(CCC2)Oc2c(Cl)cc(Cl)cc21 (stereo not drawn) [Example 62, N-(6,8-Dichloro-3,4-dihydrospiro[chromene-2,1′-cyclobutan]-4-yl)-3-{2-isopropoxy-5-[(methylsulfonyl)amino]phenyl}propanamide]
37.6% | 95.4% |  | CS(=O)(=O)Nc1cccc(CCC(=O)NC2CC3(CCC3)Oc3c(Cl)cc(Cl)cc32)c1OCC1CC1 (stereo not drawn) [Example 64, N-(6,8-Dichloro-3,4-dihydrospiro[chromene-2,1′-cyclobutan]-4-yl)-3-{2-(cyclopropylmethoxy)-3-[(methylsulfonyl)amino]phenyl}propanamide]
74.1% | 99.5% | 500 to 1000 nM | CC(C)Oc1c(CCC(=O)NC2CC3(CCC3)Oc3c(Cl)cc(Cl)cc32)cccc1NS(C)(=O)=O (stereo not drawn) [Example 65, N-(6,8-Dichloro-3,4-dihydrospiro[chromene-2,1′-cyclobutan]-4-yl)-3-{2-isopropoxy-3-[(methylsulfonyl)amino]phenyl}propanamide]
44.6% | 92.3% |  | O=C(CCc1cccc2ccccc12)NC1CC2(CCC2)Oc2ccc(Cl)cc21 (stereo not drawn) [Example 66, N-(6-Chloro-3,4-dihydrospiro[chromene-2,1′-cyclobutan]-4-yl)-3-(1-naphthyl)propanamide]
17% | 84.7% |  | COc1ccc2ccccc2c1CCC(=O)N[C@@H]1CC2(CCC2)Oc2ccc(Cl)cc21 [Example 67]
70.6% | 91% | 500 to 1000 nM | COc1ccc2ccccc2c1CCC(=O)N[C@H]1CC2(CCC2)Oc2ccc(Cl)cc21 [Example 68]
40.3% | 86.8% |  | COc1ccc(CCC(=O)N[C@@H]2CC3(CCC3)Oc3ccc(Cl)cc32)c2ccccc12 [Example 69, N-[(4R)-6-Chloro-3,4-dihydrospiro[chromene-2,1′-cyclobutan]-4-yl)-3-(4-methoxy)-1-naphthylpropanamide]
66.1% | 91.2% | 500 to 1000 nM | COc1ccc(CCC(=O)N[C@H]2CC3(CCC3)Oc3ccc(Cl)cc32)c2ccccc12 [Example 70, N-[(4S)-6-Chloro-3,4-dihydrospiro[chromene-2,1′-cyclobutan]-4-yl)-3-(4-methoxy)-1-naphthylpropanamide]
53.5% | 95.5% |  | O=C(CCc1ccc(OC(F)F)c2ccccc12)N[C@@H]1CC2(CCC2)Oc2ccc(Cl)cc21 [Example 71, (4R)-6-Chloro-N-(3,4-dihydrospiro[chromene-2,1′-cyclobutan]-4-yl)-3-(4-difluoro-methoxy-1-naphthyl)propanamide]
60.3% | 93.3% | 500 to 1000 nM | O=C(CCc1ccc(OC(F)F)c2ccccc12)N[C@H]1CC2(CCC2)Oc2ccc(Cl)cc21 [Example 72, (4S)-6-Chloro-N-(3,4-dihydrospiro[chromene-2,1′-cyclobutan]-4-yl)-3-(4-difluoromethoxy-1-naphthyl)propanamide]
61.3% | 83.3% | 500 to 1000 nM | O=C(CCc1ccc2ccccc2c1)NC1CC2(CCC2)Oc2ccc(Cl)cc21 (stereo not drawn) [Example 73, N-(6-Chloro-3,4-dihydrospiro[chromene-2,1′-cyclobutan]-4-yl)-3-(2-naphthyl)propanamide]
64.1% | 90.4% | 1000 to 2000 nM | COc1ccc2cc(CCC(=O)N[C@@H]3CC4(CCC4)Oc4ccc(Cl)cc43)ccc2c1 [Example 74]
46.6% | 90.4% |  | COc1ccc2cc(CCC(=O)N[C@H]3CC4(CCC4)Oc4ccc(Cl)cc43)ccc2c1 [Example 75]
23.5% | 58.8% |  | O=C(CCc1ccc2ccccc2n1)NC1CC2(CCC2)Oc2ccc(Cl)cc21 (stereo not drawn) [Example 76, N-(6-Chloro-3,4-dihydrospiro[chromene-2,1′-cyclobutan]-4-yl)-3-(quinolin-2-yl)propanamide]

Compound | inhibition at 1 µM | inhibition at 10 µM | IC50
CCCCOc1c(CCC(=O)NC2CC3(CCC3)Oc3c(Cl)cc(Cl)cc32)cccc1NS(C)(=O)=O (stereo not drawn) [Example 63, N-(6,8-Dichloro-3,4-dihydrospiro[chromene-2,1′-cyclobutan]-4-yl)-3-{2-butoxy-3-[(methylsulfonyl)amino]phenyl}propanamide] | 73.3% | 97% | 
